Assays:
[1] = tested on: caspase 3/7 activity in AGS cells; experiment: Caspase 3/7 activity assay (Ac-DEVD-AMC fluorimetric) in AGS cells; format: cell-based, human; settings: 48 h incubation at 12.5 µM, vs control, p < 0.05
Experimental: The activity of caspase 3/7 was determined by fluorimetric assay based on the hydrolysis of the peptide substrate acetyl-Asp-Glu-ValAsp-7-amido-4-methylcoumarin (Ac-DEVD-AMC) by caspase 3/7 using a previously reported procedure.

[2] = tested on: MG-63 (osteosarcoma); experiment: MTT cytotoxicity assay in MG-63; format: cell-based; settings: Homo sapiens, 48 h incubation, mean ± SD
Experimental: (§1) The cytotoxicity was assessed in different cell lines with the endpoint MTT, using previously reported procedure. The following cells were obtained from the American Type Culture Collection: human embryonic kidney epithelial cell line (HEK 293T, ATCC HBT-22™), breast cancer cell line (MDA-MB-231, ATCC HTB-26™), osteosarcoma cell line (MG-63, ATCC CRL-1427™), gastric adenocarcinoma cell line (AGS, ATTC CRL-1739TM), prostate cancer cell line (DU-145, ATTC HTB-81™), and lung carcinoma cell line (A-549, ATCC CCL-185™). All cell lines were seeded at 2 × 10^4 cells/well with exception of A-549 cell line, which was seeded at 5 × 10^3 cells/well.

[3] = tested on: human gastric adenocarcinoma (AGS) cell line; experiment: MTT reduction assay, cell viability / cytotoxicity in AGS cell line; format: cell-based; settings: for potency relative to hit 7c (times more potent / fold more active): AGS cells, ratio of IC50 values; for viability at 50 µM: Homo sapiens, AGS cell line, cell viability, MTT, 48 h incubation, mean ± SD, read-out: % CV at 50 µM
Experimental: as §1

[4] = tested on: A-549 (lung carcinoma); experiment: MTT cytotoxicity assay in A-549; format: cell-based; settings: Homo sapiens, A549, 48 h incubation, mean ± SD
Experimental: as §1

[5] = Human plasma stability; format: in vitro ADME; settings: human plasma diluted 50% in PBS, 24 h incubation, 37 °C, 100 µM
Experimental: (§2) Human plasma was obtained from healthy volunteers and provided by Instituto Português do Sangue, Lisbon, Portugal. Buffer and human plasma stabilities were determined by standard methodology. Specifically, human plasma was centrifuged (5 min, 2000× g, room temperature) and, then, diluted 50% in PBS buffer (pH 7.4). The reactions were initiated by the addition of a solution of compound 7s (4 mM in DMSO, 25 µL) to 975 µL of plasma solution, at 37 °C, obtaining a final concentration of 100 µM. Solutions were stirred at 37 °C and 100 µL aliquots were collected at different time points: 0, 30, 60, 120, and 180 min (one additional aliquot was collected at 24 h). A cold reserpine solution (internal standard, 5 µM in acetonitrile, 300 µL) was then added to quench the reactions. Following centrifugation (10 min, 10,000× g, room temperature), the clear supernatants were stored at −20 °C until further analysis by HPLC-DAD. Assays were run in duplicate and procaine was used as a positive control for plasma stability. Additional control assays were conducted using PBS (pH 7.4) instead of a plasma solution. HPLC-DAD analysis was performed as previously described.

[6] = Buffer (PBS pH 7.4) stability; format: physicochemical; settings: PBS pH 7.4, 24 h incubation, 37 °C
Experimental: as §2

[7] = Metabolic stability in human liver microsomes with NADPH; format: in vitro ADME
Experimental: The evaluation of the metabolic stability of compound 7s was conducted in human liver microsomes (GIBCO^TM, 20 donors) by a previously reported procedure. Specifically, for a total incubation volume of 1 mL, in 100 mM phosphate buffer at pH 7.4, 7s (10 μM), human liver microsomes (0.8 mg protein/mL), NADPH (1 mM), and NADPH regeneration system (10 µL, Vivid® Regeneration System, 100×) were used. Nevirapine was used as a positive control. Additional control incubations were performed in the absence of 7s or NADPH, and using heat-denatured (90 °C, 15 min) microsomes. The resulting mixtures were incubated at 37 °C, and all assays were run in duplicate. Aliquots (50 µL) were collected at different time points (0, 5, 10, 20, 30, 40, 50, 60, 75, 90, 120, and 180 min and 24 h) and 50 µL of cold reserpine solution (2.5 µM in acetonitrile) was then added to quench the reactions. Following centrifugation (10 min, 10,000× g, 4 °C), the supernatants were stored at −20 °C until LC-MS and LC-HRMS/MS analysis.
Samples from the metabolic stability assay were analyzed by LC-MS using the experimental conditions previously described. The in vitro depletion half-life of 7s, t1/2, was calculated using Equation (1), assuming that the compound follows a first-order kinetic trend (see Supplementary Materials Figure S2). The “slope” was determined from linear fitting of the natural logarithm of the concentration of drug remaining plotted against time. (1) t1/2=ln2/slope
The intrinsic clearance was calculated using Equation (2) (2) CLint = 0.693/ t1/2 × mL incubation/mg microsomes × 45 mg microsomes/g liver × 26 g liver/Kg b.w.

| stability in PBS [6] | in vitro metabolic stability [7] | intrinsic hepatic clearance (CLint) ([7]; calculated from t1/2 (Equation 2)) [min⁻¹ mL⁻¹ kg⁻¹] | half-life at 10 µM ([7]; pH 7.4, 10 µM, 37 °C, read-out: half-life (t1/2)) [min] | Compound | caspase 3/7 activity [1] | IC50 [2] [µM] | potency relative to hit 7c (times more potent / fold more active) [3] | viability at 50 µM [3] [%] | IC50 [4] [µM] | stability in human plasma [5] |
| --- | --- | --- | --- | --- | --- | --- | --- | --- | --- | --- |
|  |  |  |  | O=C1CC[C@]2(c3ccc(-c4ccc(C(F)(F)F)cc4)cc3)OC[C@@H](Cc3c[nH]c4ccccc34)N12 [Compound 7o, (3R,7aR)-3-((1H-indol-3-yl)methyl)-7a-(4’-(trifluoromethyl)-[1,1’-biphenyl]-4-yl)tetrahydropyrrolo[2,1-b]oxazol-5(6H)-one] | significant increase | 26.8 ± 0.4 | 2.3 | 7 ± 1 | > 60 |  |
| chemical stability in PBS conditions | moderately stable | 22.8 | 45 | O=C1CC[C@]2(c3ccc(-c4ccc(Cl)c(Cl)c4)cc3)OC[C@@H](Cc3c[nH]c4ccccc34)N12 [Compound 7s, (3R,7aR)-3-((1H-indol-3-yl)methyl)-7a-(3’,4’-dichloro-[1,1’-biphenyl]-4-yl)tetrahydropyrrolo[2,1-b]oxazol-5(6H)-one] | significant increase |  | 2.3 | 8 ± 1 | > 60 | stability in PBS conditions and under plasmatic enzyme activity |
